Assay results taken from paper PMC7471006, “A Simplified Quantitative Real-Time PCR Assay for Monitoring SARS-CoV-2 Growth in Cell Culture” (mSphere, 2020).
Like-named read-outs stand apart in the source and are kept apart here.

Assays:
SARS-CoV-2 = experiment: SYBR green-based qRT-PCR of SARS-CoV-2 RNA in supernatants of infected Vero E6 cells (compound screen); assay type: cell-based; conditions: for Effect on SARS-CoV-2 viral RNA in supernatants / SARS-CoV-2 replication: MOI 0.01, 24 hpi, result in words; for IC50: Severe acute respiratory syndrome coronavirus 2, Vero C1008, MOI 0.01, 24 hpi, read-out: IC50 (50% inhibitory concentration), SARS-CoV-2 viral RNA in supernatants
Vero E6 cells [1] = experiment: RealTime-Glo MT cell viability assay (compound cytotoxicity); conditions: parallel plates, result in words
Vero E6 cells [2] = test system: Vero E6 cells

| Compound | Effect on SARS-CoV-2 viral RNA in supernatants / SARS-CoV-2 replication (SARS-CoV-2) | Compound cytotoxicity (Vero E6 cells [1]) | Compound cytotoxicity (Vero E6 cells [2]) | IC50 (SARS-CoV-2) | Potency on SARS-CoV-2 viral RNA in supernatants compared with 24 hpi (SARS-CoV-2; 48 hpi, data not shown) |
| --- | --- | --- | --- | --- | --- |
| CC(C)CN(C[C@@H](O)[C@H](Cc1ccccc1)NC(=O)O[C@H]1CCOC1)S(=O)(=O)c1ccc(N)cc1 [amprenavir] | modestly inhibited | without apparent cytotoxicity |  |  |  |
| CCN(c1nc(N)c(C(=O)NC(=N)N)nc1Cl)C(C)C [EIPA, ethylisopropylamiloride] | substantially decreased viral RNA in supernatants at subcytotoxic levels |  |  |  |  |
| Cc1nc2ccc(Br)cc2c(-c2ccc(Cl)cc2)c1C(OC(C)(C)C)C(=O)O (stereo not shown) [ALLINI-2] | modestly inhibited |  | without apparent cytotoxicity |  |  |
| CCC(CC)COC(=O)[C@H](C)N[P@](=O)(OC[C@H]1O[C@@](C#N)(c2ccc3c(N)ncnn23)[C@H](O)[C@@H]1O)Oc1ccccc1 [remdesivir] | substantially decreased |  |  | 2.8 µg/mL |  |
| Cc1ccnc2c1NC(=O)c1cccnc1N2C1CC1 [nevirapine] | modestly inhibited | without apparent cytotoxicity |  |  |  |
| Cc1cccc(/C=N/Nc2cc(N3CCOCC3)nc(OCCc3ccccn3)n2)c1 [apilimod] | substantially decreased |  | minimal cytotoxicity | 12 nM | less potent |
